Measured values from ChEMBL document CHEMBL4507266, “Data for DCP probe BAY-784” (2021).

Experiments:
[1] = target: C-C chemokine receptor type 2 (Homo sapiens) (UniProt P41597); experiment: Inhibition of Chemokine CCR2B at 10 µM in the Eurofins-Panlabs radioligand binding assay (Eurofins_assay_217550); conditions: Compound concentration 10.0 uM
[2] = target: Neutrophil elastase (Homo sapiens) (UniProt P08246); experiment: Inhibition of Peptidase, ELA2 (Neutrophil Elastase 2) at 10 µM in the Eurofins-Panlabs enzyme assay (Eurofins_assay_166010); conditions: Compound concentration 10.0 uM
Chain of Neutrophil elastase (Homo sapiens) (P08246 whole entry): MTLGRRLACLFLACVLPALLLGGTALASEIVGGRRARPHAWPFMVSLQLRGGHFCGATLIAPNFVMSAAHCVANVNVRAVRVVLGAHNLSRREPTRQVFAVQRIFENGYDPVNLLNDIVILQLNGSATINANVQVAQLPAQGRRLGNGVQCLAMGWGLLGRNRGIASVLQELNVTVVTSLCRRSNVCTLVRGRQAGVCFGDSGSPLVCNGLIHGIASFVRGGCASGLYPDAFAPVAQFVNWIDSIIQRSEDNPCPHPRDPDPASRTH

[3] = target: Neutrophil elastase (Homo sapiens) (UniProt P08246); experiment: Peptidase, ELA2 (Neutrophil Elastase 2) Eurofins-Panlabs enzyme assay; conditions: Compound concentration 30.0 uM
Cannabinoid receptor 1 [4] = target: T1, Cannabinoid receptor 1 (Homo sapiens, UniProt P21554); experiment: Inhibition of Cannabinoid CB1 at compound concentration of 10.0 uM in the Eurofins-Panlabs radioligand binding assay (Eurofins_assay_217030); set-up: ligand concentration 2 nM, non-specific ligand with concentration 10 uM R(+)-WIN-55,212-2, incubation time 90 min, incubation temperature 37 C
T1 sequence (P21554 whole entry): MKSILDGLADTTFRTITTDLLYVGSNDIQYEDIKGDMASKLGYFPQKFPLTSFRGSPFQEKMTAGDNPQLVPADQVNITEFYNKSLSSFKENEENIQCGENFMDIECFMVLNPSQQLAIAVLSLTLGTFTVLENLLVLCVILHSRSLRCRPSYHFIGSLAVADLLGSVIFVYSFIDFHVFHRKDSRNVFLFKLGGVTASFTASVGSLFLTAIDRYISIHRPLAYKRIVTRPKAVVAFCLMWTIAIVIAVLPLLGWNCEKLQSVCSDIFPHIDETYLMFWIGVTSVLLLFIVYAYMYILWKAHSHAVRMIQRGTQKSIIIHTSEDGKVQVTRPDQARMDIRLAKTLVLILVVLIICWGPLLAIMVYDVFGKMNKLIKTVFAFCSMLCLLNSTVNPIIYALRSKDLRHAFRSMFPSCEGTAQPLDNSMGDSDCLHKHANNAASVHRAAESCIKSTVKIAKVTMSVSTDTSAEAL

[5] = tested on: Progesterone receptor (Bos taurus); experiment: Progesterone Eurofins-Panlabs radioligand binding assay; conditions: Compound concentration 10.0 uM
[6] = target: T2, Alpha-2A adrenergic receptor (Homo sapiens) (UniProt P08913); experiment: Adrenergic alpha2A Eurofins-Panlabs radioligand binding assay; set-up: ligand concentration 1 nM, non-specific ligand with concentration 10 µM WB-4101, incubation time 60 min, incubation temperature 25 °C; conditions: Compound concentration 10.0 uM
T2 sequence (whole entry): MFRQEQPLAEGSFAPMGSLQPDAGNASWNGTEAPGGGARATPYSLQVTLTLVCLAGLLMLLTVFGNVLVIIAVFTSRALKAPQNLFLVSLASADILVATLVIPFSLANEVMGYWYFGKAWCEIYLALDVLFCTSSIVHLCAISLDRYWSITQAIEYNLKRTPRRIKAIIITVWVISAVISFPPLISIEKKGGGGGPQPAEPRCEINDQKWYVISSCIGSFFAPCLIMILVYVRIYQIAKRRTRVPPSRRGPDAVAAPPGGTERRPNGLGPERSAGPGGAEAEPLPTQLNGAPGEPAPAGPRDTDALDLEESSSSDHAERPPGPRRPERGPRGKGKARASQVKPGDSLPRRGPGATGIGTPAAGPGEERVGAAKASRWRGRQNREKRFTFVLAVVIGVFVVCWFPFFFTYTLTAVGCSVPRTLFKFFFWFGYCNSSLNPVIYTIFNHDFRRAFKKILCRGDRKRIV

[7] = target: 5-hydroxytryptamine receptor 4 (Homo sapiens) (UniProt Q13639); experiment: Inhibition of Serotonin (5-Hydroxytryptamine) 5-HT4 at 10 µM in the Eurofins-Panlabs radioligand binding assay (Eurofins_assay_272000); conditions: Cavia porcellus; Compound concentration 10.0 uM
[8] = target: Beta-1 adrenergic receptor (Homo sapiens) (UniProt P08588); conditions: Compound concentration 10.0 uM
Chain of Beta-1 adrenergic receptor (Homo sapiens) (P08588 whole entry, looked up): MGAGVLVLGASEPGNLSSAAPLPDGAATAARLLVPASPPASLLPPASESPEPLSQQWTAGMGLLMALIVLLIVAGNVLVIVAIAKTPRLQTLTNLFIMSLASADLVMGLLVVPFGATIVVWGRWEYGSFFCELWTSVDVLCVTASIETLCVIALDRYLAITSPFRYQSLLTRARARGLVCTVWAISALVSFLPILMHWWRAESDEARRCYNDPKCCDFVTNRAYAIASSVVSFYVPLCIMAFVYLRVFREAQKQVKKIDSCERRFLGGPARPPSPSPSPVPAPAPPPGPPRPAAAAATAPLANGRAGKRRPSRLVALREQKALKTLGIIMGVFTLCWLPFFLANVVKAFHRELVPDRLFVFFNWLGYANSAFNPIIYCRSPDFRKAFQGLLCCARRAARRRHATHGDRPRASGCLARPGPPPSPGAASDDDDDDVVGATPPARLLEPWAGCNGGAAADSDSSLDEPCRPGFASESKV

CYP2D6 = CYP2D6 (Homo sapiens, UniProt P10635); experiment: CYP450, 2D6 Eurofins-Panlabs enzyme assay; conditions: compound concentration 10 uM
Chain of CYP2D6 (P10635 whole entry): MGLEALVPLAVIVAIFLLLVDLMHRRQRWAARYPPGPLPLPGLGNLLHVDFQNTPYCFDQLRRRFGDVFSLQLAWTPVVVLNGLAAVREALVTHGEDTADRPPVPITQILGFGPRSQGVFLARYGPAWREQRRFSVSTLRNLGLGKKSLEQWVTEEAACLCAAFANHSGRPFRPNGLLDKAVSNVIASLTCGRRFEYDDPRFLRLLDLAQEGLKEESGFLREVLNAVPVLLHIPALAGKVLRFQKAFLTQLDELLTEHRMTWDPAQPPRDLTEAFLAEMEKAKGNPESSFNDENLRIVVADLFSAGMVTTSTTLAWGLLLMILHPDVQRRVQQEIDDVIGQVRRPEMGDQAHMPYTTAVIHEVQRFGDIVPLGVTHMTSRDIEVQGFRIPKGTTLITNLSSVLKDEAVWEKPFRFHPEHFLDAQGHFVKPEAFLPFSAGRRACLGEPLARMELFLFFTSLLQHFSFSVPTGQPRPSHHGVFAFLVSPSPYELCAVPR

[9] = target: GABA-A receptor; anion channel (Rattus norvegicus) (UniProt O09028+P15431+P18506+P18508+P19969+P20236+P23574+P23576+P28471+P28473+P30191+P62813+P63079+P63138+Q91ZM7+Q9ES14); experiment: Inhibition of GABAA, Muscimol, Central at 10 µM in the Eurofins-Panlabs radioligand binding assay (Eurofins_assay_226500); type: protein-complex assay; conditions: Compound concentration 10.0 uM
[10] = target: Substance-K receptor (Homo sapiens) (UniProt P21452); experiment: Inhibition of Tachykinin NK2 at 10 µM in the Eurofins-Panlabs radioligand binding assay (Eurofins_assay_255600); set-up: ligand concentration 0.5 nM; conditions: Compound concentration 10.0 uM
[11] = target: Melanocortin receptor 5 (Homo sapiens) (UniProt P33032); experiment: Inhibition of Melanocortin MC5 at 10 µM in the Eurofins-Panlabs radioligand binding assay (Eurofins_assay_251400); set-up: ligand concentration 0.035 nM; conditions: Compound concentration 10.0 uM
[12] = target: D(2) dopamine receptor (Homo sapiens) (UniProt P14416); conditions: Compound concentration 10.0 uM
Chain of D(2) dopamine receptor (Homo sapiens) (P14416 whole entry): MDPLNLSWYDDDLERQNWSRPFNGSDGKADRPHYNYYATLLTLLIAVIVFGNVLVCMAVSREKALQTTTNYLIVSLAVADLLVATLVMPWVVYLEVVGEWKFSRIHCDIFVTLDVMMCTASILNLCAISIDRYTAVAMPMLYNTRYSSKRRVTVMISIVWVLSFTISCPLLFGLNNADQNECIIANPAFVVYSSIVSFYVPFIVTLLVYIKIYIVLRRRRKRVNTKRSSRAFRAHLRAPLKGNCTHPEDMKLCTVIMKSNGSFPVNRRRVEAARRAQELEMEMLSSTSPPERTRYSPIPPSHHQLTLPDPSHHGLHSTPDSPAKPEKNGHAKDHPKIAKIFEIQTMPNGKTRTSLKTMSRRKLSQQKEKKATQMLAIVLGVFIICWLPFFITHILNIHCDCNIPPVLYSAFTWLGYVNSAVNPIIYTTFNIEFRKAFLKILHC

[13] = target: Estrogen receptor (Homo sapiens) (UniProt P03372); conditions: Compound concentration 10.0 uM
[14] = target: Cholecystokinin receptor type A (Homo sapiens) (UniProt P32238); experiment: Inhibition of Cholecystokinin CCK1 (CCKA) at 10 µM in the Eurofins-Panlabs radioligand binding assay (Eurofins_assay_218020); conditions: Compound concentration 10.0 uM
Chain of Cholecystokinin receptor type A (Homo sapiens) (P32238 whole entry): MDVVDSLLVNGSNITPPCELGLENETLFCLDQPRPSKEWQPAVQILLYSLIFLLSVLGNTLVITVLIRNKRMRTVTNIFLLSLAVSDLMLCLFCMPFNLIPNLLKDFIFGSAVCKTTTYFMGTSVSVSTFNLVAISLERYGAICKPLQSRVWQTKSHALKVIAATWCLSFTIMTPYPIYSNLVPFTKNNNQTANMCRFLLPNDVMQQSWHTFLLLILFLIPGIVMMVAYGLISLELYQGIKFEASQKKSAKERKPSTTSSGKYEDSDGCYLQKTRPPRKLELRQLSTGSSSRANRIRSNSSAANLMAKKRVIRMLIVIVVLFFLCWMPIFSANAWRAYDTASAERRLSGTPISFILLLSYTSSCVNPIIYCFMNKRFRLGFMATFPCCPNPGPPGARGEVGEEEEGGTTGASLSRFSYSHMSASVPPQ

[15] = target: Beta-2 adrenergic receptor (Homo sapiens) (UniProt P07550); conditions: Compound concentration 10.0 uM
Chain of Beta-2 adrenergic receptor (Homo sapiens) (P07550 whole entry, looked up): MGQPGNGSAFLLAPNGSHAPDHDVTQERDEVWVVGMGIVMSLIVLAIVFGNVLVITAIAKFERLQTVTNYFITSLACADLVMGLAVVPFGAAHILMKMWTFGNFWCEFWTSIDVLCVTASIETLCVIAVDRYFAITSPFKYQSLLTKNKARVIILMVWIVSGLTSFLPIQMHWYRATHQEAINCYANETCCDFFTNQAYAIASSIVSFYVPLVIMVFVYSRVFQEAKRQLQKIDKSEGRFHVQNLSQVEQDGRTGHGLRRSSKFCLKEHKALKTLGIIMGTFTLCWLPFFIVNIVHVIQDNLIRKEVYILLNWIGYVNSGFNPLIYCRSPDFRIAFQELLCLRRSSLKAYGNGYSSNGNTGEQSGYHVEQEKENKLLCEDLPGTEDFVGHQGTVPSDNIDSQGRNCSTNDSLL

[16] = target: C-X-C chemokine receptor type 2 (Homo sapiens) (UniProt P25025); experiment: Inhibition of Chemokine CXCR2 (IL-8RB) at 10 µM in the Eurofins-Panlabs radioligand binding assay (Eurofins_assay_244500); conditions: Compound concentration 10.0 uM
[17] = target: Adenosine receptor A3 (Homo sapiens) (UniProt P0DMS8); conditions: Compound concentration 10.0 uM
Chain of Adenosine receptor A3 (Homo sapiens) (P0DMS8 whole entry): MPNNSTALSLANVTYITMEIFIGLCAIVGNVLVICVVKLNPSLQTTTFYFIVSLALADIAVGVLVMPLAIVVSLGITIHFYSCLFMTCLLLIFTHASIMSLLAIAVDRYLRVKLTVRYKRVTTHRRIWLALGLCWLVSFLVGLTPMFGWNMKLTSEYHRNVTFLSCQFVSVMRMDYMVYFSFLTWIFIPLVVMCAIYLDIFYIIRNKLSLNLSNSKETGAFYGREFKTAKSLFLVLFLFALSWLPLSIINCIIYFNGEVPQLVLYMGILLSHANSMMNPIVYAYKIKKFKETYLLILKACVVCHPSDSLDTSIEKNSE

[18] = target: Tyrosine-protein kinase Lck (Homo sapiens) (UniProt P06239); experiment: Inhibition of Protein Tyrosine Kinase, LCK at 10 µM in the Eurofins-Panlabs enzyme assay (Eurofins_assay_176020); conditions: Compound concentration 10.0 uM
Chain of Tyrosine-protein kinase Lck (Homo sapiens) (P06239 2-509 limits assumed): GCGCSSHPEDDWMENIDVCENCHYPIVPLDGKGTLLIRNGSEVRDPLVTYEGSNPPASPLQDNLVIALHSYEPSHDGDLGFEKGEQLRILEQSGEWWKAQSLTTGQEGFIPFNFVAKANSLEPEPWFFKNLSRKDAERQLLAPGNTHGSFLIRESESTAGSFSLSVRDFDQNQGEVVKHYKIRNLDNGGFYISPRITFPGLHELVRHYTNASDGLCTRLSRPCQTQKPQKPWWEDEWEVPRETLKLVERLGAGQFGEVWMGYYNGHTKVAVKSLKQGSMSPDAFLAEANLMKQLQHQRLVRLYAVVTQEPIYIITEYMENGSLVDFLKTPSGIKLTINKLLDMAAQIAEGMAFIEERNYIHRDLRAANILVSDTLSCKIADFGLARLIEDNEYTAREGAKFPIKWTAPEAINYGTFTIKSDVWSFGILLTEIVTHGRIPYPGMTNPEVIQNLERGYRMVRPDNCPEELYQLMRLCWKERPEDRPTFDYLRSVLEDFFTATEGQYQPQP

[19] = target: 5-hydroxytryptamine receptor 5A (Homo sapiens) (UniProt P47898); conditions: Compound concentration 10.0 uM
[20] = Inhibition of Atrial Natriuretic Factor (ANF) at 10 µM in the Eurofins-Panlabs radioligand binding assay (Eurofins_assay_211000); conditions: Cavia porcellus; Compound concentration 10 uM; Assay protocol publication PMID: 2408776; Detection method Radioligand Binding; Incubation temperature 4 °C; Incubation time 60 min; Ligand Bmax 0.013 pM/ mg protein; Ligand Kd 0.14 nM; Ligand [125I] ANF (rat); Ligand concentration 0.016 nM; Ligand specific binding 78 %; Non-specific ligand with concentration 0.1 µM ANF (rat); Reference compound ANF (rat); Source of …
Cannabinoid receptor 1 [21] = target: T1, Cannabinoid receptor 1
Caspase-1 (Homo sapiens) = Caspase-1 (Homo sapiens) (UniProt P29466); experiment: Inhibition of Peptidase, CASP1 (Caspase 1) at 10 µM in the Eurofins-Panlabs enzyme assay (Eurofins_assay_163000); conditions: Compound concentration 10.0 uM
Chain of Caspase-1 (Homo sapiens) (P29466 120-297 limits assumed): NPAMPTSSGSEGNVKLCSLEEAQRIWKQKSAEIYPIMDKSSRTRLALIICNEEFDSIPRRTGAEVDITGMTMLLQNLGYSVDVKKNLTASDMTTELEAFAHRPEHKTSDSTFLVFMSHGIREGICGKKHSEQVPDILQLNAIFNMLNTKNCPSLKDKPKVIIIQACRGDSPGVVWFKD
Chain of Caspase-1 (Homo sapiens) (P29466 317-404 limits assumed): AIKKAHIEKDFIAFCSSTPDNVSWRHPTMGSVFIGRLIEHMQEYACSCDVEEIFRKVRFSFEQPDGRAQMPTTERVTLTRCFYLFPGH

[22] = target: Monoamine oxidase A (MAO-A) (Homo sapiens, UniProt P21397); experiment: Inhibition of Monoamine Oxidase MAO-A at compound concentration of 10.0 uM in the Eurofins-Panlabs enzyme assay (Eurofins_assay_140010); set-up: substrate with concentration 50 uM Kynuramine, incubation time 60 min, incubation temperature 37 C; conditions: recombinant human MAO-A expressed in insect Hi5 cells, probe Kynuramine, 50 uM, compound concentration 10 uM
Chain of Monoamine oxidase A (MAO-A) (P21397 whole entry): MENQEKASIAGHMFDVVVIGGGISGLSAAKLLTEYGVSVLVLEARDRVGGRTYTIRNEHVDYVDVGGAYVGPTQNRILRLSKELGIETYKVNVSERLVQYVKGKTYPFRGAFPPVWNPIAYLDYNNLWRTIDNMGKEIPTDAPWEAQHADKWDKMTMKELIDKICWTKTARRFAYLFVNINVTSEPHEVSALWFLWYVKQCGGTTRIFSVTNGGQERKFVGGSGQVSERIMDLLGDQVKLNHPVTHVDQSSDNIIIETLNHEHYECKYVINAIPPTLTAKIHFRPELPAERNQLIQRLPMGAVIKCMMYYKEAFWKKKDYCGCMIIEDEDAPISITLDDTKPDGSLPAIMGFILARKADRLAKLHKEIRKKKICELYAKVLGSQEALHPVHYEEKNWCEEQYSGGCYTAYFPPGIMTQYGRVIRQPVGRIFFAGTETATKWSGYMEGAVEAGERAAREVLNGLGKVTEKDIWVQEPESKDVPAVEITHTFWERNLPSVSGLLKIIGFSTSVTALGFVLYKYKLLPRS

[23] = target: Glucocorticoid receptor (Homo sapiens) (UniProt P04150); conditions: Compound concentration 10.0 uM
Rattus norvegicus = organism: Rattus norvegicus; experiment: Inhibition of Glutamate, NMDA, Phencyclidine at 10 µM in the Eurofins-Panlabs radioligand binding assay (Eurofins_assay_233000); type: protein-complex assay; conditions: Compound concentration 10.0 uM
[24] = target: Kappa-type opioid receptor (Homo sapiens) (UniProt P41145); conditions: Compound concentration 10.0 uM
[25] = target: Glutamate receptor ionotropic, kainate (Rattus norvegicus) (UniProt P22756+Q01812+P42260+P42264+Q63273); experiment: Inhibition of Glutamate, Kainate at 10 µM in the Eurofins-Panlabs radioligand binding assay (Eurofins_assay_232700); conditions: Compound concentration 10.0 uM

Work on `O=C(NCc1ncc(C(F)(F)F)cc1Cl)c1ccc2c(c1)C1(CCS(=O)(=O)CC1)[C@H](C1CC1)N2S(=O)(=O)c1ccc(F)cc1` [BAY-784] yielded an inhibition [1] of -1%, an inhibition [2] of 0% and an inhibition [3] of 4%. The Ki (Cannabinoid receptor 1 [4]) was 2.57 µM, the inhibition [5] was 0% and the inhibition [6] was -1%. For the same compound, the inhibition [7] was 22%, the inhibition [8] was 7% and the inhibition at 10 µM (CYP2D6) was 4% (not active). For the same compound, the inhibition [9] was 7%, the inhibition [10] was 7% and the inhibition [11] was 27%. The inhibition [12] was 4%, the inhibition [13] was 21% and the inhibition [14] was -3%. For the same compound, the inhibition [15] was -4%, the inhibition [16] was 14% and the inhibition [17] was 9%. For the same compound, the inhibition [18] was 0%, the inhibition [19] was -8.25% and the inhibition at 10 µM [20] was 2% (not active). The inhibition (Cannabinoid receptor 1 [21]; Compound concentration 3.0 uM) was 52%, the inhibition (Cannabinoid receptor 1 [21]; Compound concentration 10.0 uM) was 73% and the inhibition (Caspase-1 (Homo sapiens)) was 8%. For the same compound, the inhibition at 60 min, 10 µM [22] was 3% (not active), the inhibition [23] was 13% and the inhibition (Rattus norvegicus) was -4%. For the same compound, the inhibition [24] was 7% and the inhibition [25] was 1%.
